Experimental data taken from publication PMC10808720 (Frontiers in Pharmacology, 2024).
“Also recorded” adds a separate entry of the source. Where two headings read alike, the source gives them in different places.

How the values were obtained:
[1] = Cytotoxicity assay (AlamarBlue); format: cell-based, Human; conditions: human, A549 cells; for CC50: 48 h
Method: The cytotoxicity of the molecules was analyzed using the commercial kit AlamarBlue® (Invitrogen, Ref. DAL1025) according to the manufacturer’s instructions. Briefly, A549 cells were seeded at a density of 5 × 10^3 cells per well in 96-well plates, and decreasing serial dilutions of each molecule were diluted in 100 μL of DMEM starting at 200 μM. The cells were then incubated at 37°C for 48 h following the manufacturer’s protocol. The cytotoxic concentration 50% (CC50) value was obtained using the statistical software GraphPad Prism 6. The assay was performed in duplicate.

[2] = system: HCMV; assay: Impact on HCMV replication (qPCR of HCMV DNA in HFF); format: cell-based, human cytomegalovirus; conditions: 2-fold IC50 (HAdV plaque assay), 72 h
Method: To test the anti-HCMV activity of these rotenolone-related compounds, human foreskin fibroblasts (HFF; ATCC, Manassas, VA) were seeded in a 24-well plate (8.3 × 10^4 cells/well), infected with HCMV (MOI 0.05 vp/cell), and incubated in complete DMEM in the presence of either 2-fold IC50 concentration of each compound obtained in the plaque assay against HAdV or the same volume of DMSO (positive control) in duplicate. The cells were incubated for 72 h at 37°C and 5% CO2 and HCMV DNA was purified from the cell lysate using E.Z.N.A Tissue DNA Kit (Omega Biotek, Norcross, GA, USA) following the manufacturer’s instructions. The qPCR primers, conditions, and protocols were the same as previously reported ([Mazzotta et al., 2020b]).

[3] = system: p53/MDM2 complex; format: cell-based, Human; conditions: HAdV5-infected A549 cells, 24 h; for concentration of p53/MDM2 complexes, high vs low cell density: 10-fold IC50
Method: A549 cells were seeded at a density of 1.5 × 10^5 cells per well in a 24-well plate at a high density and 3.75 × 10^4 cells per well at a low density. […] The culture medium was then aspirated and washed with 1X with cold PBS. Later, 200 μL RIPA Lysis Buffer (1% v/v NP-40, 20 mM Tris-HCL pH 7.4, 5 mM Sodium Pyrophosphate, 5 mM EDTA) with freshly added proteinase inhibitor cocktail (Thermo Fisher Scientific) was added to each well and swirled to distribute it evenly. Cells were then scraped and collected to incubate them for 30 min on ice and finally centrifuged at 13,000 × g for 5 min at 4°C. […] This assay was performed in triplicate.

[4] = system: wild-type HAdV5; assay: HAdV yield reduction (burst) assay, TCID50 end-point dilution; format: cell-based, human adenovirus (HAdV5); conditions: 10-fold IC50 concentration, TCID50/ml compound vs. DMSO, A549 cells, 48 h, MOI 100 vp/cell
Method: A549 cells (1.5 × 10^5 cells/well in a 24-well plate) were incubated 24 h in 500 μL of complete DMEM and they were infected with wild-type HAdV5 (MOI 100 vp/cell) when more than 90% of confluency was observed. Infected cells were incubated for 48 h at 37°C in 500 μL of either complete DMEM containing 10-fold IC50 concentration of compounds obtained in the plaque assay or the same volume of DMSO (positive control). After 48 h, the cells were harvested and subjected to three rounds of freeze/thaw. Serial dilutions of the clarified lysates were titrated against A549 cells (3 × 10^4 cells/well in a 96-well plate) and TCID50 values were calculated using an end-point dilution method ([Reed and Muench, 1938]).

[5] = system: HAdV5-GFP; assay: microbe, parasite or virus in culture; format: cell-based, human adenovirus (HAdV5); conditions: for Selectivity index: CC50 (A549) vs IC50 plaque assay (HAdV5)
Method: Compounds were tested using low MOI infections (0.06 vp/cell), initially at concentrations of 10 μM and subsequently in a dose-response assay ranging from 10 μM to 2.44 nM in a plaque assay. Briefly, 293β5 cells were seeded in 6-well plates at a density of 1 × 10^6 cells per well in duplicate for each condition. When the cells reached 80%–90% confluency, they were infected with HAdV5-GFP and rocked for 2 h at 37°C. After the incubation, the inoculum was removed and the cells were washed once with PBS. Cells were then carefully overlaid with equal parts of 4 mL/well 1.6% ([…]) Difco Agar Noble (Becton, Dickinson & Co., Sparks, MD, USA) and 2× Eagle’s Minimum Essential Medium (EMEM; BioWhittaker) supplemented with 2×penicillin/streptomycin, 2× L-glutamine, and 10% FBS. The mixture also contained the compounds in the concentration ranges described above. Following incubation for 7 days at 37°C, plates were scanned with a Typhoon FLA 9000 imager (GE Healthcare Life Sciences) and the formed plaques were quantified with ImageJ ([Schneider et al., 2012]). Plaque counting was performed to calculate the 50% inhibitory concentration (IC50) of each compound using the statistical software GraphPad Prism 6.

[6] = system: wild-type HAdV5; assay: HAdV DNA quantification by qPCR; format: cell-based, human adenovirus (HAdV5); conditions: 10-fold IC50; A549; 24 h; vs DMSO control
Method: For DNA quantification, A549 cells (1.5 × 10^5 cells/well in a 24-well plate) were incubated for 24 h in 500 μL of complete DMEM and were infected with wild-type HAdV5 (MOI 100 vp/cell) after observing more than 90% of confluency. Infected cells were incubated for 24 h at 37°C in 500 μL of either complete DMEM containing 10-fold IC50 concentration of the compounds obtained in the plaque assay or the same volume of DMSO (positive control). All samples were prepared in duplicate. After 24 h of incubation at 37°C, DNA was purified from the cell lysate with the E.Z.N.A.® Tissue DNA Kit (Omega Bio-tek, Norcross, GA) following the manufacturer’s instructions. PCR conditions, primers, and probes were as described by [Henke-Gendo et al. (2012)]. Human glyceraldehyde-3-phosphate dehydrogenase (GAPDH) gene was used as an internal control. GAPDH oligonucleotide sequences and conditions were as previously described by [Rivera et al. (2004)].
For quantification, gene fragments from hexons, and GAPDH were cloned into the pGEM-T Easy vector (Promega) and known concentrations of the template were used to generate a standard curve in parallel for each experiment, as previously reported ([Sanchez-Cespedes et al., 2016]). All assays were performed in thermal cycler LightCycler® 96 System (Roche).

[7] = system: HAdV5-RFP; assay: Anti-HAdV activity after knockdown of RPS14 by siRNA (RFP expression); format: cell-based, human adenovirus (HAdV5); conditions: RPS14 knockdown 293β5 cells; 10-fold IC50; 48 h
Method: An siRNA approach was used to evaluate the antiviral activity of these molecules in the absence of RPS14. According to the supplier’s protocol (Effectene Transfection Reagent, QIAGEN, Valencia, CA), 293β5 cells at 1.5 × 10^4 cells/well were seeded in a clear bottom 96-well microplate a day before transfection. On the day of transfection, 0.1 µg siRNA (MISSION esiRNA RPS14, SigmaAldrich) was diluted in EC buffer up to 30 µL/well and 0.8 µL/well of the enhancer was added and the mix was incubated for 5 min. Effectene transfection reagent was added and the mix was incubated for 10 min to allow transfection complex formation. The cell layers were washed with 1x PBS and transfection complexes were poured over them. After 6 h of incubation, the transfection complexes were removed and the cells were infected with HAdV5-RFP (MOI 2,000 viral particles/cell) in the presence of a 10-fold IC50 concentration of the compounds obtained in the plaque assay or the same volume of DMSO. Standard infection was induced in the presence of the same concentrations of the compounds (performed in triplicate), and a control without siRNA. Cells, viruses, and compounds were incubated for 48 h at 37°C and 5% CO2. Infection, as measured by HAdV5-mediated RFP expression, was analyzed using a Typhoon 9410 imager (GE Healthcare Life Sciences) and quantified using ImageQuantTL (GE Healthcare Life Sciences).

[8] = Human adenovirus sp., 168 h, read-out: IC50 plaque assay

Compound | CC50 [1] | inhibition of HCMV replication [2] | concentration of p53/MDM2 complexes, high vs low cell density [3] | Virus Yield Fold-reduction [4] | Virus Yield Fold-reduction ([4]; listed as deguelin) | Selectivity index [5] | IC50 [5, 8] | HAdV DNA copy number (de novo synthesis) [6] | increase of HCMV replication compared with the control treated with DMSO [2] | inhibition at 10 µM ([5]; Human adenovirus sp., read-out: inhibition of plaque formation) | CC50 at 48 h [1] | concentration of p53/MDM2 complexes [3] | HAdV-mediated RFP expression when no RPS14 was available [7] | IC50 ([5]; Human adenovirus sp.)
COc1cc2c(cc1OC)[C@@H]1C(=O)c3ccc4c(c3O[C@@H]1CO2)C=CC(C)(C)O4 [Deguelin, (7aS,13aS)-13,13a-Dihydro-9,10-dimethoxy-3,3-dimethyl-3H-bis ([Mennechet et al., 2019])benzopyrano[3,4-b:6′,5′-e]pyran-7-(7aH)-one] | 97.2 ± 0.1 µM | 50% | non among emetine, rotenone, deguelin and tephrosin alter the concentrations | 2.7E+02 ± 19.4 fold | 270 fold | 2,429.3 | 0.04 ± 0.01 µM | significant decrease | – | – | – | – | – | –
CC1(C)C=Cc2c(ccc3c2O[C@@H]2COc4cc5c(cc4[C@@H]2C3=O)OCO5)O1 [Millettone] | 109 ± 2.2 µM | did not inhibit | – | – | – | 23.8 | 4.6 ± 0.54 µM | – | more than 10 times | > 98% | – | – | – | –
COc1cc2c(cc1OC)[C@]1(O)C(=O)c3ccc4c(c3O[C@@H]1CO2)C=CC(C)(C)O4 [Tephrosin, hydroxydeguelin] | – | 83.4% | non among emetine, rotenone, deguelin and tephrosin alter the concentrations | 2.7E+03 ± 987.3 fold | – | 538.9 | 0.07 ± 0.03 µM | – | – | – | 37.7 ± 0.6 µM | – | – | –
CC[C@H]1CN2CCc3cc(OC)c(OC)cc3[C@@H]2C[C@@H]1C[C@H]1NCCc2cc(OC)c(OC)cc21 [emetine, reference compound] | 6.17 ± 0.04 µM | – | no differences based on the cell density; also recorded: non among emetine, rotenone, deguelin and tephrosin alter the concentrations | – | – | – | – | – | – | – | – | dramatically reduced | reduced | 0.085 ± 0.019 µM
